# Experimental data taken from PubChem BioAssay (NCI).
# Values joined by “and” are separate entries in the source; they are usually repeats but may differ in a detail not shown here. Equal entries are not always repeated.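 Grown in 96-well plates, cells were treated for 48 hours with each compound at five concentrations. Insufficient inhibition: endpoint recorded as highest concentration tested. Abbreviation: GI50, concentration required for 50% inhibition of growth. At the TGI there is no net growth.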
# Test system: MDA-MB-468 breast
# Assay: NCI-60 cell line screen, 48 h
Structure (SMILES),GI50,TGI
N#CSc1c[nH]c2cccc(/C=C/C(=O)/C=C(O)/C=C/c3cccc4[nH]cc(SC#N)c34)c12,496 nM,1220 nM
C=CN(C(=O)N1CCN(c2cc3c(cc2F)c(=O)c(C(=O)O)cn3C2CC2)CC1)c1nc(-c2ccc(C)cc2)cs1,2860 nM,9140 nM
NC1=Nc2cc(OCCCCN3Cc4ccccc4C3)c(OCC3CC3)cc2C12CCCC2,1250 nM,2750 nM
Cc1ccccc1C1N=C2Oc3ccccc3C=C2C(=O)N1 (stereo not drawn),524 nM,> 100000 nM
CN(C)CCCn1c2c(c3ccc(N4CCNCC4)cc3c1=O)C(=O)c1ccccc1-2,949 nM,2410 nM
O=C1Nc2ccc(I)cc2/C1=C/c1cc(Br)c(O)c(Br)c1,> 18900 nM and 15900 nM,> 25000 nM and 57500 nM
CC1(C)CCC(c2ccc(Cl)cc2)=C(CN2CCN(c3ccc(C(=O)NS(=O)(=O)c4ccc(N[C@H](CCN5CCOCC5)CSc5ccccc5)c(S(=O)(=O)C(F)(F)F)c4)cc3)CC2)C1,770 nM,2640 nM
Cc1ccc(CNc2ccc(Cl)cc2NCc2ccc(C)c(O)c2)cc1O,8050 nM,16800 nM
CCN(CC)c1ccc(C=C2C(=O)NC(=S)NC2=O)cc1,2370 nM,5560 nM
O=c1[nH]c2c(ccc3cnccc32)c2c1CCC2,206 nM,549 nM
CC(C)OC(=O)OCOP(=O)(OCOC(=O)OC(C)C)C1CCCN(O)C1=O (stereo not drawn),1610 nM,> 100000 nM
COC(=O)[C@@H](C)C[C@H](Cc1ccccc1)NC(=O)c1nc([C@@H](C[C@H](C(C)C)N(C)C(=O)[C@@H](NC(=O)[C@H]2CC(=O)CCN2C)C(C)C)OC(C)=O)sc1C(C)C,25.8 nM,129 nM
CCn1nc(C#Cc2c(C)ccc3c(Nc4ccc(Cl)cc4)nccc23)c2c(N)ncnc21,2250 nM,10500 nM
COc1ccc(-c2cc(-c3ccc(Cl)cc3)c(C#N)c(=O)n2CCCCCC(=O)Nc2ccccc2N)cc1,3240 nM,31500 nM
O=c1c2cc(F)ccc2sc2c(NCCCNCCO)nc3ccc(F)cc3c12,1780 nM,3470 nM
COc1cc2nc(NC3CCC3)nc(NC3CCN(C(C)C)CC3)c2cc1OC,1370 nM,2850 nM
N/C(=N\O)c1cn(C2OC(CO)C(O)C2O)c2ncnc(N)c12 (stereo not drawn),126 nM,453 nM
CCCCCCCCCCCCNC(=O)N[C@H](C(=O)N[C@H]1/C=C/OCCNC(=O)/C=C/[C@H](C(C)C)NC1=O)C(C)C,898 nM,6740 nM
CN1CCN(c2ccc(Nc3nc(NCCCNS(=O)(=O)c4cccc(F)c4)c4sccc4n3)cc2)CC1,2590 nM,10900 nM
CCOc1ccc(-c2nc3ccc(-c4nc5ccc(N6CCN(C)CC6)cc5[nH]4)cc3[nH]2)cc1OCC,1580 nM,4600 nM
COc1cc(-c2nn(-c3cccc(NC(=O)NCCNC(=O)c4ccccc4)c3)cc2-c2ccncc2)ccc1Cl,3140 nM,> 100000 nM
CNC(=S)N/N=C/CSC/C=N/NC(=S)NC,> 100000 nM,> 100000 nM
CC(C)c1c(C(=O)Nc2ccccc2)c(-c2ccccc2)c(-c2ccc(F)cc2)n1CC[C@@H](O)C[C@@H](O)CC(=O)O,9320 nM,68900 nM
CC(=O)Nc1ccc(S(=O)(=O)N2C(=O)CCC2C(=O)Nc2ccccc2)cc1 (stereo not drawn),1760 nM,19200 nM
COc1cc(C(=O)N[C@@H]2CCCN(C)C2)ccc1Nc1ncc2c(n1)N(C1CCCC1)CC(C)(C)C(=O)N2C,17.7 nM,3390 nM
OC1(c2ccccc2)c2ccccc2N(c2ccccc2)c2ccc(Cl)cc21 (stereo not drawn),86.4 nM,317 nM
Nc1c2ccccc2nc2ccccc12,1060 nM and 1150 nM,2850 nM and 2880 nM
CC1(C)CC[C@]2(C(=O)O)CC[C@]3(C)C(=CC[C@@H]4[C@@]5(C)C/C(=C/c6cccnc6)[C@H](O)C(C)(C)[C@@H]5CC[C@]43C)[C@@H]2C1,17100 nM,88300 nM
O=c1[nH]c(-c2ccncc2)nc2sc3c(c12)CCCCCC3,> 100000 nM,> 100000 nM
